Data taken from patent US20260035339A1, “TETRAHYDRONAPHTHALENE DERIVATIVE” (ATRANSEN PHARMA LTD., priority 2022, published 2026).

Key:
human LAT1 = human LAT1 (Homo sapiens, UniProt Q01650); assay: [14C]L-leucine uptake inhibition test using human-LAT1 stably expressing HEK293 cell line; type: cell-based; design: having full-length cDNA of human LAT1 or LAT2 inserted under a promoter of CMV; expressed in transfected cells; key to Assay Data: degree of [14C]L-leucine uptake inhibition compared with BCH: a test compound having a higher inhibitory effect than BCH is denoted by A; a test compound having the same inhibitory effect as BCH is denoted by B; a test compound having a lower inhibitory effect than BCH is denoted by C; conditions: for Assay Data: degree of [14C]L-leucine uptake inhibition compared with BCH: compound (racemic form) and BCH at 0.1, 1.0, 10 μM, 1 μM [14C]L-leucine, 1 minute, Na+-free HBSS
Excerpt: HEK293 cells stably expressing human LAT1 and LAT2 were produced, respectively.
A shuttle vector DNA (LAT1: pcDNA3.1(+) -hLAT1, LAT2: pcDNA3.1(+) -hLAT2; expression vector pcDNA3.1 (+) was produced by Invitrogen Corp.) having ampicillin and neomycin resistance markers and having full-length cDNA of human LAT1 or LAT2 inserted under a promoter of CMV (cytomegalovirus) was constructed. This vector was transfected into the HEK293 cells by a method using Lipofectamine (registered trademark) 2000 (Invitrogen Corp.) according to the manufacturer's instructions. Thereafter, stably expressing cell clones of transgene were selected by a limiting dilution method in the presence of 0.9 mg/mL of Geneticin (registered trademark), and among the obtained cell clones, cell clones having a high uptake of [^14C]L-leucine and maintaining stable expression even after 10 passages were obtained. These cells were used for evaluating affinity and selectivity for LAT1 and LAT2.
1-1. It has been confirmed that LAT1 is responsible for L-leucine uptake in the absence of sodium ions in the human-LAT1 stably expressing HEK293 cell line. The human-LAT1 stably expressing HEK293 cell line was seeded in a 24-well plate at 1×10^5 Cell/Well, and the [^14C]L-leucine uptake inhibition test using the compound was performed after 48 hours. After the medium was removed and the cells were washed with Hank's balanced salt solution (Na^+-free HBSS) not containing sodium ions, the cells were cultured in Na^+-free HBSS for 10 minutes. Thereafter, 1 μM of [^14C]L-leucine was taken up in Na^+-free HBSS in the presence of a test compound (0.1, 1.0, 10, 0 μM in each case), which is a racemic form, for 1 minute, and then the cells were washed three times with ice-cooled Na^+-free HBSS. To the well, 500 μL of 1 M NaOH was added, and after 30 minutes, the cells were lysed, and the cell lysate was collected. The amount of [^14C]L-leucine in the cell lysate was determined using a liquid scintillator. The amount of protein in the cell lysate was measured using BCA Assay Kit (Thermofisher Scientific), and the uptake amount of [^14C]L-leucine per 1 mg of protein in the cell per minute was calculated.
The degree of LAT1 inhibition of the compound obtained in the present invention was compared with BCH (BCH, 2-aminobicyclo-(2,2,1)-heptane-2-carboxylic acid), which is an existing LAT1 inhibitor. In the [^14C]L-leucine uptake inhibition test described above, the degrees of inhibition of [^14C]L-leucine uptake inhibition using the compound (racemic form) obtained in Examples and BCH (0.1, 1.0, 10, 0 μM for both) were compared. […] In the table, a test compound having a higher inhibitory effect than BCH is denoted by A, a test compound having the same inhibitory effect as BCH is denoted by B, and a test compound having a lower inhibitory effect than BCH is denoted by C.

[1] = system: Mouse colorectal cancer-derived CT26 cells; assay: Cell proliferation inhibitory effect using mouse colorectal cancer cells (CCK-8 assay); type: cell-based; conditions: 72 hours compound treatment, read-out: Evaluation of IC50 (proliferation inhibition rate of 50%)
Protocol: Mouse colorectal cancer-derived CT26 cells were adjusted to […], seeded in a 96-well plate at 1000 cells/well, and cultured in a 10% fetal bovine serum-added RPMI 1640 medium at 5% CO2 and 37° C. The culture medium was changed 24 hours after the start of the culture, and the medium containing the compound of Example was replaced to examine the action of the compound on cell proliferation. As the compound, a concentration of 0.01, 0.03, 0.1, 0.3, 1, 3, 10, or 30 μM was used. As a control, the cells were cultured in a medium containing no compound. The number of cells was evaluated by CCK-8 assay (Cell Counting Kit-8, DOJINDO LABORATORIES) 72 hours after the start of the compound treatment, and the compound concentration (IC50 value) giving a proliferation inhibition rate of 50% as compared with the control was calculated.

Chain of human LAT1 (Q01650 whole entry): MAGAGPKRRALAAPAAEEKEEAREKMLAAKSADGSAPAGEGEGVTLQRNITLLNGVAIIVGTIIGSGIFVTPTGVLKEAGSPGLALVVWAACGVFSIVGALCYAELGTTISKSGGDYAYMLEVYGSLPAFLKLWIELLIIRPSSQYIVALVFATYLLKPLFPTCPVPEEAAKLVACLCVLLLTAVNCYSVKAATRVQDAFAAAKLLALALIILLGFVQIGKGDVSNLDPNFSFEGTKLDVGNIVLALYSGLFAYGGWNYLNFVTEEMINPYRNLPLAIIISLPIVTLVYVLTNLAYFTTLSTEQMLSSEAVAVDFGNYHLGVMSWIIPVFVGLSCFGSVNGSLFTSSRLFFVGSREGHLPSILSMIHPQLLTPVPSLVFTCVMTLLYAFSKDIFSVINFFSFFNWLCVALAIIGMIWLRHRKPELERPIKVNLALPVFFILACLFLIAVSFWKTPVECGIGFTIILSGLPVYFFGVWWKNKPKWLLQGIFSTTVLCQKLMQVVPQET
Chain of human LAT1 (P08195 102-630 partner): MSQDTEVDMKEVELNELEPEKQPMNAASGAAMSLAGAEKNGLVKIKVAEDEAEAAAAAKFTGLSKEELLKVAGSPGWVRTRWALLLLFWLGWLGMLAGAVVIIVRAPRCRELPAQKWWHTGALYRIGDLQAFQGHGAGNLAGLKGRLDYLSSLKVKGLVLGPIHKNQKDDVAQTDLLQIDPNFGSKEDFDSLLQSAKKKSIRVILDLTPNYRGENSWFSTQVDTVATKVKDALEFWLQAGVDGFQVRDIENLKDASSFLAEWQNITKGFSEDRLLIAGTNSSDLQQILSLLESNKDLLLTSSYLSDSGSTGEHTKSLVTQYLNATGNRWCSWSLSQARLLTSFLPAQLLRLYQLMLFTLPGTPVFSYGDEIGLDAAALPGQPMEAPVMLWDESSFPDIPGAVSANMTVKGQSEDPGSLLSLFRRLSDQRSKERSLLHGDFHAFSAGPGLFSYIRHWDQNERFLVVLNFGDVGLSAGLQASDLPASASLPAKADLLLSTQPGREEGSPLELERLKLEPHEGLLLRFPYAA

Structure (SMILES)	[14C]L-leucine uptake inhibition via LAT1 (in words) (human LAT1; 0.1 to 10 μM)	Assay Data: degree of [14C]L-leucine uptake inhibition compared with BCH (human LAT1)	IC50 [1] [nM]	LAT1 inhibitory effect, compounds singled out (in words) (human LAT1; same test as Table 1)
NC1(C(=O)O)CC2CCC1C2 (stereo not shown) [BCH, 2-aminobicyclo-(2,2,1)-heptane-2-carboxylic acid, reference compound]	weak	–	–	–
Cl.NC1(C(=O)O)CCc2ccc(Oc3ccc4occc4c3)cc2C1 (stereo not shown) [Example 1-3, 7-(benzofuran-5-yloxy)-2-carboxy-1,2,3,4-tetrahydronaphthalene-2-aminium chloride]	–	A	–	–
COc1ccc2ccc(Oc3ccc4c(c3)CC(N)(C(=O)O)CC4)cc2c1.Cl (stereo not shown) [Example 1-5, 2-carboxy-7-((7-methoxynaphthalene-2-yl)oxy)-1,2,3,4-tetrahydronaphthalene-2-aminium chloride]	–	A	–	–
CN(C)c1ccc2cc(Oc3ccc4c(c3)CC(N)(C(=O)O)CC4)ccc2c1 (stereo not shown) [Example 1-6, 2-amino-7-((6-(dimethylamino)naphthalene-2-yl)oxy)-1,2,3,4-tetrahydronaphthalene-2-carboxylic acid]	–	A	–	–
CN(C)c1ccc2ccc(Oc3ccc4c(c3)CC(N)(C(=O)O)CC4)cc2c1 (stereo not shown) [Example 1-7, 2-amino-7-((7-(dimethylamino)naphthalene-2-yl)oxy)-1,2,3,4-tetrahydronaphthalene-2-carboxylic acid]	–	A	–	–
NC1(C(=O)O)CCc2ccc(Oc3ccc4ncccc4c3)cc2C1 (stereo not shown) [Example 1-8, 2-amino-7-(quinoline-6-yloxy)-1,2,3,4-tetrahydronaphthalene-2-carboxylic acid]	–	A	–	–
NC1(C(=O)O)CCc2ccc(Oc3cccc(-c4ccccn4)c3)cc2C1 (stereo not shown) [Example 1-9, 2-amino-7-(3-(pyridine-2-yl)phenoxy)-1,2,3,4-tetrahydronaphthalene-2-carboxylic acid]	–	A	–	–
Cl.NC1(C(=O)O)CCc2ccc(Oc3cccc(-c4ccc(Cl)cc4)c3)cc2C1 (stereo not shown) [Example 1-10, 2-carboxy-7-((4′-chloro-[1,1′-biphenyl]-3-yl)oxy)-1,2,3,4-tetrahydronaphthalene-2-aminium chloride]	–	A	–	–
Cl.NC1(C(=O)O)CCc2ccc(Oc3cccc(-c4cccc(Cl)c4)c3)cc2C1 (stereo not shown) [Example 1-11, 2-carboxy-7-((3′-chloro-[1,1′-biphenyl]-3-yl)oxy)-1,2,3,4-tetrahydronaphthalene-2-aminium chloride]	–	A	–	–
Cl.NC1(C(=O)O)CCc2ccc(Oc3ccc(-c4ccccc4)cc3)cc2C1 (stereo not shown) [Example 1-12, 7-([1,1′-biphenyl]-4-yloxy)-2-carboxy-1,2,3,4-tetrahydronaphthalene-2-aminium chloride]	–	A	–	–
Cl.NC1(C(=O)O)CCc2ccc(Oc3cccc(-c4ccc5ccccc5c4)c3)cc2C1 (stereo not shown) [Example 1-13, 2-carboxy-7-(3-(naphthalene-2-yl)phenoxy)-1,2,3,4-tetrahydronaphthalene-2-aminium chloride]	–	A	–	–
Cl.NC1(C(=O)O)CCc2ccc(Oc3ccccc3-c3c(F)c(F)c(F)c(F)c3F)cc2C1 (stereo not shown) [Example 1-64, 2-carboxy-7-((2′,3′,4′,5′,6′-pentafluoro-[1,1′-biphenyl]-2-yl)oxy)-1,2,3,4-tetrahydronaphthalene-2-aminium chloride]	–	A	≤ 900	–
NC1(C(=O)O)CCc2ccc(Oc3ccc([N+](=O)[O-])cc3)cc2C1 (stereo not shown) [Example 1-68, 2-carboxy-7-(4-nitrophenoxy)-1,2,3,4-tetrahydronaphthalene-2-aminium chloride]	–	–	900 to 5000	–
NC1(C(=O)O)CCc2cc(Oc3ccc(-c4cccnc4)cc3)ccc2C1 (stereo not shown) [Example 2-2, 3-(4-((6-ammonio-6-carboxy-5,6,7,8-tetrahydronaphthalene-2-yl)oxy)phenyl) pyridine-1-ium chloride]	–	B	–	–

More lines, now with the values ahead:

[14C]L-leucine uptake inhibition via LAT1 (in words) (human LAT1; 0.1 to 10 μM)	Assay Data: degree of [14C]L-leucine uptake inhibition compared with BCH (human LAT1)	IC50 [1] [nM]	LAT1 inhibitory effect, compounds singled out (in words) (human LAT1; same test as Table 1)	Structure (SMILES)
–	A	–	–	Cl.NC1(C(=O)O)CCc2ccc(Oc3cccc(-c4ccccc4)c3)cc2C1 (stereo not shown) [Example 1-2, 7-([1,1′-biphenyl]-3-yloxy)-2-carboxy-1,2,3,4-tetrahydronaphthalene-2-aminium chloride]
–	A	≤ 900	particularly remarkable effects	Cl.NC1(C(=O)O)CCc2ccc(Oc3cccc4ccccc34)cc2C1 (stereo not shown) [Example 1-4, 2-carboxy-7-(naphthalene-1-yloxy)-1,2,3,4-tetrahydronaphthalene-2-aminium chloride]
–	A	≤ 900	–	Cl.NC1(C(=O)O)CCc2ccc(Oc3ccccc3-c3ccccc3)cc2C1 (stereo not shown) [Example 1-16, 7-([1,1′-biphenyl]-2-yloxy)-2-carboxy-1,2,3,4-tetrahydronaphthalene-2-aminium chloride]
–	A	900 to 5000	–	Cl.Cl.NC1(C(=O)O)CCc2ccc(Oc3ccccc3-c3ccccn3)cc2C1 (stereo not shown) [Example 1-32, 2-(2-((7-ammonio-7-carboxy-5,6,7,8-tetrahydronaphthalen-2-yl)oxy)phenyl) pyridin-1-ium chloride]
–	A	≤ 900	–	COc1cccc(-c2ccccc2Oc2ccc3c(c2)CC(N)(C(=O)O)CC3)c1.Cl (stereo not shown) [Example 1-39, 2-carboxy-7-((3′-methoxy-[1,1′-biphenyl]-2-yl)oxy)-1,2,3,4-tetrahydronaphthalene-2-aminium chloride]
–	A	≤ 900	–	CCc1cccc(-c2ccccc2Oc2ccc3c(c2)CC(N)(C(=O)O)CC3)c1.Cl (stereo not shown) [Example 1-47, 2-carboxy-7-((3′-ethyl-[1,1′-biphenyl]-2-yl)oxy)-1,2,3,4-tetrahydronaphthalene-2-aminium chloride]
–	A	≤ 900	–	Cl.NC1(C(=O)O)CCc2ccc(Oc3ccccc3-c3ccc(F)c(F)c3)cc2C1 (stereo not shown) [Example 1-56, 2-carboxy-7-((3′,4′-Difluoro-[1,1′-Biphenyl]-2-yl)oxy)-1,2,3,4-tetrahydronaphthalene-2-aminium chloride]
–	A	≤ 900	–	COc1cccc2cccc(Oc3ccc4c(c3)CC(N)(C(=O)O)CC4)c12.Cl (stereo not shown) [Example 1-60, 2-carboxy-7-((8-methoxynaphthalen-1-yl)oxy)-1,2,3,4-tetrahydronaphthalen-2-aminium chloride]
–	A	≤ 900	–	Cl.NC1(C(=O)O)CCc2ccc(Oc3cccc4cccc(-c5ccccc5)c34)cc2C1 (stereo not shown) [Example 1-61, 2-carboxy-7-((8-phenylnaphthalen-1-yl)oxy)-1,2,3,4-tetrahydronaphthalen-2-aminium chloride]
–	A	–	–	Cl.NC1(C(=O)O)CCc2cc(Oc3ccc4ccccc4c3)ccc2C1 (stereo not shown) [Example 2-1, 2-carboxy-6-(naphthalene-2-yloxy)-1,2,3,4-tetrahydronaphthalene-2-aminium chloride]
